Data set [1] is described as follows: Rat pharmacokinetics, plasma concentration by LC-MS/MS after oral dose. The data set is classed as in vivo, Sprague Dawley rats. The protocol: Male adult Sprague Dawley rates (~165g) received a single oral bolus dose of 40mg/kg of compound 3 in a 0.5% methylcellulose/0.1% Tween80 by oral gavage. Rats were sacrificed when collecting blood and spleen samples just prior to dosing and at 0.5 hours, 2h, 8h and 24h (n=3 rats per time point), and the plasma concentration of compound 3 and the spleen PGD2 concentration was measured at each time point.
Blood samples were removed and kept cold at approximately 4°C immediately after collection to minimize degradation and centrifuged as soon as possible at approximately 4000 x g for 10 min. The plasma was transferred to a clean, pre-labelled polypropylene tube and frozen. Samples were stored at -20°C as soon as possible after collection to minimise degradation of the test item.
Plasma concentrations of 3 were determined using a screening LC-ms/ms method developed using the following parameters:
Samples were analysed alongside plasma standards. Concentration data were determined by back calculation from standard curve.

Data set [2] deals with MEG-01S human megakaryocytes. As to the kind of experiment: A23187-inducible PGD2 production in PMA-differentiated MEG-01S (EIA). The format is cell-based. The following applies: 0-100 µM, 30 min before 5 µM A23187 (Figure 3A). The protocol: (§1) All bone marrow-derived macrophages (BMM) were obtained by culturing bone marrow cells from the femurs of 6 to 8 week old C57BL/6 male mice in RPMI 1640 medium (Invitrogen Life Technologies, Carlsbad, CA, USA) supplemented with 10 % Fetal calf serum (Invitrogen) 20 U/ml penicillin and 20 µg/ml streptomycin (Invitrogen), 2 mM L-glutamine (Glutamax-1, Invitrogen) in the presence of 10^4 U/ml (100 ng/mL) recombinant human CSF-1 (a gift from Chiron, Emeryville, CA) on bacteriological plastic plates for 7 days. The human megakaryocytic cell line MEG-01S was obtained from the American Type Culture Collection. MEG-01S were maintained in the same media as for BMM, supplemented with 1 mM Sodium Pyruvate (Invitrogen).
BMM were seeded overnight at 2 x 10^5 cells/ml in 24 well plates before treatment with compound at either 10 µM or 0.1 - 100 µM for 24 h in the presence or absence of lipopolysaccharide (LPS) from Salmonella Minnesota (Sigma-Aldrich) at a final concentration of 10 ng/ml. […] Supernatants were collected and samples were analysed for PGD2 using Prostaglandin D2 Mox Express EIA kits, PGE2 using Prostaglandin E2 Express EIA kits, the prostacyclin derivative 6-keto PGF1α using the 6-keto Prostaglandin F1α EIA Kit and the Thromboxane A2 derivative TXB2 using the Thromboxane B2 Express EIA kit (Cayman Chemical) according to the manufacturer's instructions. […]

The test system of a further data set is BMM. As to the kind of experiment: BMM cell viability by MTT assay. The data set is classed as cell-based, mouse. The conditions noted are these: at 10 µM or 100 µM, LPS, 24 h (Figure 1B). The protocol: as §1
Known inhibitors 1 and 2, along with compound 3, were used to treat BMM at three doses (10, 30, 100 µM) in the presence of LPS for 24 h and cell viability was measured by MTT assay. BMM were seeded at 1 x 10^5 cells/well in 96 well plates and treated for 24 h with LPS (10 ng/ml) and compounds at 10, 30 and 100 µM. MEG-01S were PMA differentiated overnight before compounds were added for a further 24 h at 10, 30 and 100 µM. Cell viability was measured by MTT (Sigma-Aldrich) assay as described previously (Irvine, FASEB J, 2006).
For orientation: Tetrazolium dyes change colour on reduction, which living cells bring about.

Consider 1 compound from patent EP2576536B1, “HAEMATOPOIETIC-PROSTAGLANDIN D2 SYNTHASE INHIBITORS” (priority 2010, dated 2011).

Structures are written as SMILES. Where “and” joins values, the source holds several entries; their conditions need not be identical. Equal entries are not always repeated. Where two headings read alike, the source gives them in different places.

As for `NC(=O)[C@H](Cc1ccccc1)NC(=O)c1ccc(-c2cccs2)nc1` [Compound 3, N-(1-amino-1-oxo-3-phenylpropan-2-yl)-6-(thiophen-2-yl)-nicotinamide], the “Concentration” value in data set [1] (individual rat, 0.5 h after 40mg/kg oral gavage) is 263 ng/mL and 218 ng/mL; in data set [1] (individual rat, 2 h after 40mg/kg oral gavage), 73.5 ng/mL and 107 ng/mL; in data set [1] (individual rat, 8 h after 40mg/kg oral gavage), 17.3 ng/mL and 63.9 ng/mL and 51.8 ng/mL. Further, the “Concentration (ng/mL)” value in data set [1] (individual rat, 24 h after 40mg/kg oral gavage) was “BLOQ^2”. Also, the concentration at 0.5 h is 219 ± 24.8 ng/mL in data set [1] (male, Sprague Dawley, rat, plasma, oral, 40 mg/kg, 0.5 h after 40mg/kg oral gavage, N 3, read-out: Mean (± sem) Concentration) and 177 ng/mL in data set [1] (male, Sprague Dawley, rat, plasma, oral, 40 mg/kg, individual rat, 0.5 h after 40mg/kg oral gavage, read-out: Concentration). Further, the concentration at 2 h was found to be 91.8 ± 9.79 ng/mL in data set [1] (male, Sprague Dawley, rat, plasma, oral, 40 mg/kg, 2 h after 40mg/kg oral gavage, N 3, read-out: Mean (± sem) Concentration) and 94.8 ng/mL in data set [1] (male, Sprague Dawley, rat, plasma, oral, 40 mg/kg, individual rat, 2 h after 40mg/kg oral gavage, read-out: Concentration). Moreover, the concentration at 8 h in data set [1] (male, Sprague Dawley, rat, plasma, oral, 40 mg/kg, 8 h after 40mg/kg oral gavage, N 3, read-out: Mean (± sem) Concentration) came out at 44.3 ± 14 ng/mL. Besides, the concentration at 24 h in data set [1] (male, Sprague Dawley, rat, plasma, oral, 40 mg/kg, 24 h after 40mg/kg oral gavage, N 3, BLOQ treated as 0.5 ng/mL, read-out: Mean (± sem) Concentration) came to 0.677 ± 0.177 ng/mL; in data set [1] (male, Sprague Dawley, rat, plasma, oral, 40 mg/kg, individual rat, 24 h after 40mg/kg oral gavage, read-out: Concentration) it was 1.03 ng/mL. Also, in data set [1] (rat, 40mg/kg oral gavage), the oral bioavailability entry was “orally bioavailable”. For the same compound, in data set [1] (rat, 8 hours post delivery, 40mg/kg oral), the “presence in the serum” value is on record as “present”. Also, the “A23187-inducible PGD2 production” value in data set [2] is listed as “inhibited A23187-inducible PGD2 production from PMA-differentiated MEG-01S human megakaryocytes dose-dependently”. Also, the BMM viability result in the data set on BMM was “did not affect BMM viability”.
